Test results from BindingDB's records for doi:10.1016/j.bmc.2012.02.019 (Emory University, 2012).

Assay: Displacement of [3H]-AVP from human V1b receptor after […] by liquid scintillation counting

In the case of `CS(=O)(=O)N1CCC(Oc2ccc(CC(=O)N3CCC(N4C(=O)CCc5ccccc54)CC3)c(OC/C=C/I)c2)CC1`, the Ki is reported as > 1 µM.
